Measured values as given in patent US20100034766A1, “Malodor Counteracting Compositions” (Givaudan SA, priority 2006, published 2010).
Where a name gives a salt, the structure may show the parent alone.

Columns and labels:
[1] = Malodor reduction potential: headspace GC/MS determination of hexyl amine remaining; settings: for % Reduction of hexyl amine: 10 ul hexyl amine
Procedure: A 1 liter glass headspace collection jar had placed inside it a 25 ml stoppered glass container which contained 0.5 g of a test compound/mixture of compounds as indicated in Table 3. 10 ul of hexyl amine as a representative malodor was injected into the headspace jar. This was left for 15 minutes at 25° C. to equilibrate. One ml/minute of the headspace was drawn for one minute through a Tenax™ headspace trap. The trap was removed and analyzed to determine the initial concentration of the malodor. The glass stopper was removed from the container and the test component and the malodor were left in contact for 60 minutes at 25° C. One ml/minute of the headspace was drawn for one minute through a Tenax™ headspace trap to determine the amount of malodor remaining. The Tenax traps were thermally desorbed into an Agilent 6890 GC/MS to analyze the quantity of hexyl amine. The results are shown in Table 3 below: Following the same procedure described in Example 1, compounds according to formula (B) were mixed with an equal amount of citronellyl methylcrotonate. 0.5 g of the resulting mixture was tested against 10 ul hexyl amine as a representative malodor. Following the same procedure described in Example 1,5-(1-(3,3-dimethyl-cyclohexyl)ethoxy)-5-methylhexan-2-one (compound 10) was mixed with an equal amount of compounds of formula (A). 0.5 g of the resulting mixture was tested against 10 ul hexyl amine as a representative malodor.

[2] = Sensory test of axilla malodor reduction on cotton pads, expert panel, Labeled Magnitude Scale; settings: Example 4, Table 6; 0.4 g of 10% ethanol solution of test mixture on pad with 0.5 g of 1% synthetic axilla malodor; expert panel of 5, LMS
Procedure: Test mixtures of a compound of formula (A) and a compound of formula (B) in the ratio as given in Table 6 (10% ethanol solution) of each was prepared. 0.5 g of a 1% ethanol solution of synthetic axilla malodor was placed onto cotton pads. 0.4 g of the ethanol solution of the test mixtures, respectively, was placed on each axilla malodor treated cotton pad. One pad was left untreated as the control. Each pad was allowed to dry for 15 minutes. The test cotton pads were randomized, and an expert panel of 5 was used to determine the intensity of the malodor. Each panelist was asked to check a box that represented the strength of the axilla malodor using a Labeled Magnitude Scale (LMS) (Barry G. Green, Pamela Dalton, Beverly Cowart, Greg Shaffer, Krystyna Rankin and Jennifer Higgins. Evaluating the Labeled Magnitude Scale for Measuring Sensations of Taste and Smell. Chemical Senses. Vol. 21, pp 323-334, 1996).
The % reduction of malodor was calculated by:
% Reduction=(Mean LMS Control−Mean LMS Test)/Mean LMS Control
A Givaudan fragrance composition containing solvent dipropylene glycol at 20% (Composition A) and a fragrance composition (Composition B) wherein 10% dipropylene glycol are replaced by 10% of a mixture of compound 4 and geranyl:crotonate (1:9); were compared for MOC efficacy using the sensory test described in Example 4.

[3] = Example 1, Table 3, 0.5 g test compound/mixture, 60 minutes contact at 25° C., headspace
[4] = Example 3, Table 5, compound 10 mixed with equal amount of formula (A) compounds, 0.5 g

SMILES | % Reduction of hexyl amine [1, 3] [%] | % Reduction of hexyl amine [1, 4] [%] | % Reduction of axilla malodor [2] [%] | % Reduction of hexyl amine ([1]; Example 2, Table 4, formula (B) compounds mixed with equal amount of citronellyl methylcrotonate, 0.5 g) [%] | effect on the effectiveness of the class A compound (hexyl amine reduction) ([1]; compound 4 in combination with a class A compound, Table 3)
CCCCC(CC)COC(=O)C=Cc1ccc(OC)cc1 (stereo not drawn) [Octyl methyl cinnamate, 2-ethyl-hexyl-para-methoxy-cinnamate] | 54.1 | 58.7 |  |  | 
O=C(C=Cc1ccccc1)OCc1ccccc1 [benzyl cinnamate] | 23.5 | 62.1 |  |  | 
CC(C)=CCCC(C)CCOC(=O)C=C(C)C (stereo not drawn) [citronellyl methylcrotonate, 3,7-dimethyloct-6-enyl 3-methylbut-2-enoate] | 53.6 |  | 51.0 | 61.3 | 
CC(OC(C)(C)COC(=O)C1CC1)C1CCCC(C)(C)C1 (stereo not drawn) [compound 4, cyclopropanecarboxylic acid 2-[1-(3,3-dimethylcyclohexyl)ethoxy]-2-methylpropyl ester] |  |  |  |  | significantly increases the effectiveness
CCCCCCOC(=O)/C=C/C(=O)OCCCCCC [dihexyl fumarate] | 68.7 | 78.1 |  |  | 
C/C=C/C(=O)OC/C=C(\C)CCC=C(C)C [geranyl crotonate] | 64.7 | 71.0 |  |  | 
